Data taken from article PMC11871066, “Structure-based discovery of hydrocarbon-stapled paxillin peptides that block FAK scaffolding in cancer” (Nature Communications, 2025).
pEC50, pIC50: −log10 of the molar value. Where two headings read alike, the source gives them in different places. Blank lines part the entries; values can stand above or below the compound they belong to. Bridge positions count the residues as written; N and C are the ends. Square brackets hold non-standard residues; d marks the D form. Peptide text beside a SMILES is read from it. * marks the point of attachment. Myristoyl = CCCCCCCCCCCCCC(=O)*; R8 = C=CCCCCCC[C@@](C)(N)C(=O)O; S5 = C=CCCC[C@](C)(N)C(=O)O

How the values were obtained:
Type in all cases: cell-based, human
Hep-G2 cells = assay: cells; conditions: 96 h
Method: (§1) Cells were seeded at 1000 cells per well in white-walled, clear bottom 96-well plates and allowed to adhere in the incubator for 24 h. […] Treatment doses were created in a 12-or 10-point, twofold serial dilution, starting at 200 μM. After 24 h of treatment, 10% FBS was spiked back into each well and the plate returned to 37 °C […]. After 96 h of drug treatment, the Promega 2D CellTiter-Glo reagent was added to each well at a 1:2 ratio of reagent to treatment media. […] This assay was performed a minimum of 3 (n = 3) times for each cell line, with each run containing a minimum of 3 technical replicates per run. IC50 curves were generated using GraphPad Prism (version 10.3.1), reporting the mean % viability relative to DMSO ± SD.

NHEM cells = assay: cells; conditions: 96 h
Method: as §1

SK-MEL-147 cells [1] = assay: cells; conditions: 96 h
Method: as §1

LX-2 cells = assay: cells; conditions: 96 h
Method: as §1

WM88 cells = assay: cells; conditions: 96 h
Method: as §1

ONDA7 cells = assay: cells; conditions: 96 h
Method: as §1

SK-MEL-147 cells [2] = assay: Transwell invasion assay
Method: SK-MEL-147 cells were seeded at 400,000 cells/well in six-well plates and allowed to adhere in the incubator overnight. Cells were pretreated with drugs ranging from 200–0.01 μM, and incubated for 48 h. Subsequently, 8.0 μm PET membrane cell culture inserts (Falcon) were coated with 40 μL of 0.3 mg/mL Matrigel (Corning) diluted in serum-free media and incubated at 37 °C/5% CO2 for 5 h to allow the solution to gel. Unbound Matrigel was removed from the inserts, and membranes were rehydrated with serum-containing media for an additional hour. Treated cells were then trypsinized, collected by centrifugation, washed with DPBS, and resuspended in serum-free media. About 50,000 cells per treatment group were seeded into upper chambers with additional serum-free media. 10% FBS-containing media was placed into bottom chambers as a chemoattractant. After 24 h, inserts were then stained with crystal violet (Sigma-Aldrich) and washed with DPBS. Using an ECHO Revolve microscope, bright field images of 6 fields of view for each insert were taken at 10x magnification. The number of invaded cells in each image was quantified using ImageJ (version 1.52a). Bar graphs, dose-response curves, and IC50 values were established using GraphPad Prism (version 10.3.1), reporting the mean number of invaded cells relative to DMSO ± SD.
Transwell invasion assay. Representative brightfield images of invaded SK -MEL- 147 cells on transwell inserts at 10X magnification following peptide treatment. Images show invaded cells after treatment with various concentrations of 2020 (top panel), 2012 (middle panel), and defactinib (bottom panel), in addition to DMSO vehicle-control (left, top panel) and ad- FRNK positive control (left, bottom panel). Bar graphs reveal m ean number of invaded cells ± SD and calculated IC50 values across all dos e s of 2020 (left graph, n=2), 2012 (middle graph, n=6), and defactinib (right graph, n=4 ). All values for ‘n’ represent independent biological replicates. One -way ANOVA analyses and Dunnet’s multiple comparison tests were performed

SK-MEL-147 cells [3] = assay: RealTime-Glo Annexin V apoptosis assay; conditions: for induction of apoptosis, time-course: every 24 h over 96 h
Method: SK-MEL-147 cells were seeded at 1000 cells/well in 384-well white-walled, clear-bottom plates (Corning). Cells were allowed to adhere overnight. Serial twofold dilutions of drugs were prepared starting at 200 μM. Immediately after adding the drug treatments, 2X RealTime-Glo™ Annexin V Apoptosis detection reagent (Promega) was added. Replicates were also included for the following controls: “no-cell” (negative), vehicle-only controls (negative), and cisplatin (5 μM, positive). […] Dose-response curves and EC50 curves were obtained using GraphPad Prism (version 10.3.1), reporting mean luminescence relative to DMSO ± SD. A minimum of 5 independent biological runs (n = 5) were performed per treatment group. […]
manner via Annexin V apopt osi s ti me -course study. SK -MEL- 147 cells treated with ( a) 2012, (b) 2 0 20, and (c) defactinib are evaluated for apoptosis using RealTime- Glo system for Annexin V binding. EC50 curves representing data obtained every 24 hours, over the course of 96 hours total. EC50 cur ves f it us i ng GraphPad Prism reporting mean ± SD of (a) 7 biological replicates (n=7); (b) 5 biological replicates (n =5); and (c) 5 biological replicates (n =5). Source data are provided as Source Data files.

[4] = tested on: FAK/paxillin focal adhesions in SK-MEL-147 cells; assay: cells; conditions: 48 h
Method: SK-MEL-147 cells were collected and seeded into the inner 60 wells of 96-well, black-walled plates (Agilent, 204626-100) at 1000 cells per well in 100 uL of complete DMEM overnight in a 37 °C incubator with 5% CO2. The next day, the serum-containing media was removed from each well and cells were washed with PBS before treating the cells in serum-free DMEM and 0.5% DMSO for 48 h. After treatment, cells were pre-fixed with 4% paraformaldehyde diluted in 1x PBS being added directly to the culture medium for 2 min. Pre-fixation media was then removed, and 4% paraformaldehyde diluted in 1X PBS was added to each well for 3 min at room temperature. Fixative was then removed and neutralized twice with 100 mM Tris Buffered Saline in MilliQ water and then washed once with 0.1% Tween-20 in PBS. Cells were permeabilized with 0.5% Triton-X 100 in PBS for 5 min at room temperature, then the permeabilization buffer was removed, and cells were washed twice with 0.1% Tween-20 in PBS. Cells were then blocked with 10% Goat Serum in PBS for 1 h at room temperature. […] Antibody stain was then removed, and cells were washed twice with 0.1% Tween-20 in PBS. […] Cells were then washed twice with 0.1% Tween-20 in PBS and DAPI stain (Sigma-Aldrich, D9542-5MG, 1 mg/mL) diluted 1:40,000 in PBS in the dark for 5 min at room temperature. DAPI stain was then removed, and cells were washed twice with 0.1% Tween-20 in PBS, then twice with PBS for 5 min per wash on an orbital shaker. Plates were then imaged on the BioTek Cytation C10 Confocal Imaging Reader. Three fields of view were taken per well per run and analyzed in the accompanying Agilent BioTek Gen5 Software (version 3.16). The following software parameters were used to quantify FAK-containing, paxillin-containing, and FAK/paxillin-containing focal adhesions: area (0.25–33); circularity (<0.602); FAK signal to noise ratio (>2.55), FAK integrated density (SKMEL147 > 4200; WM88 >9400), paxillin signal to noise ratio (>4.5), paxillin integrated density (>8000), presence of F-actin (phalloidin) staining; and limited proximity to DAPI staining (integrated density <4000).

[5] = Homo sapiens, average of n >= 3, read-out: cell viability IC50

SMILES: CCCCCCCCCCCCCC(=O)N[C@@H](CC(N)=O)C(=O)N[C@@H](CC(C)C)C(=O)N[C@]1(C)CCCCCCC=CCCC[C@@](C)(C(=O)N[C@@H](CCC(=O)O)C(=O)N[C@@H](CC(C)C)C(=O)N[C@@H](CC(N)=O)C(N)=O)NC(=O)[C@H](CC(C)C)NC(=O)[C@H](CC(C)C)NC(=O)[C@H](CCCNC(=N)N)NC(=O)[C@H](CC(=O)O)NC(=O)[C@H](CC(C)C)NC(=O)[C@H](CCC(=O)O)NC1=O [compound 2012]
pIC50 (Hep-G2 cells): < 3.70
pIC50 (NHEM cells): < 3.70
pIC50 (SK-MEL-147 cells [1]): 5.63
pIC50 (LX-2 cells): < 3.70
pIC50 (WM88 cells): 5.35
pIC50 (ONDA7 cells): 5.01
pIC50 (SK-MEL-147 cells [2]; 48 h treatment): 5.74
pEC50 (SK-MEL-147 cells [3]; 96 h): 5.08

pIC50 (Hep-G2 cells): < 3.70
pIC50 (NHEM cells): < 3.70
pIC50 (SK-MEL-147 cells [1]): < 3.70
pIC50 (LX-2 cells): < 3.70
pIC50 (WM88 cells): < 3.70
pIC50 (ONDA7 cells): < 3.70
invasion IC50 (SK-MEL-147 cells [2]; 48 h treatment): no effect
pIC50 [4]: < 4.60
SMILES: CCCCCCCCCCCCCC(=O)N[C@@H](CC(N)=O)C(=O)N[C@@H](CC(C)C)C(=O)N[C@]1(C)CCCCCCC=CCCC[C@@](C)(C(=O)N[C@@H](CCC(=O)O)C(=O)N[C@@H](CCC(=O)O)C(=O)N[C@@H](CC(N)=O)C(N)=O)NC(=O)[C@H](CC(C)C)NC(=O)[C@H](CC(C)C)NC(=O)[C@H](CCCNC(=N)N)NC(=O)[C@H](CC(=O)O)NC(=O)[C@H](CCC(=O)O)NC(=O)[C@H](CCC(=O)O)NC1=O [compound 2020] (Myristoyl-NL[R8]EEDRLL[S5]EEN-NH2; staple 3-10)
induction of apoptosis, time-course (SK-MEL-147 cells [3]): no effect at any timepoint

SMILES: CNC(=O)c1ccc(Nc2ncc(C(F)(F)F)c(NCc3nccnc3N(C)S(C)(=O)=O)n2)cc1 [defactinib]
pIC50 (Hep-G2 cells; Homo sapiens, HepG2, average of n >= 3, read-out: cell viability IC50): 4.17
pIC50 (NHEM cells; [5]): < 3.70
pIC50 (SK-MEL-147 cells [1]; Homo sapiens, SK-MEL-147, average of n >= 3, read-out: cell viability IC50): 5.55
pIC50 (LX-2 cells; Homo sapiens, LX-2, average of n >= 3, read-out: cell viability IC50): 5.66
pIC50 (WM88 cells; [5]): 4.67
pIC50 (ONDA7 cells; [5]): 4.72
percentage of invaded cells (SK-MEL-147 cells [2]; 2.5 µM): 0%
Annexin V apoptosis EC50 (SK-MEL-147 cells [3]; 96 h): did not exhibit a dose-dependent effect
induction of apoptosis, time-course (SK-MEL-147 cells [3]): no effect at any timepoint
pIC50 ([4]; Homo sapiens, SK-MEL-147, n = 3, read-out: IC50, reduction of FAK-containing focal adhesions): 4.95
pIC50 ([4]; Homo sapiens, SK-MEL-147, n = 3, read-out: IC50, reduction of dual FAK-paxillin containing focal adhesions): 4.95
pIC50 ([4]; Homo sapiens, SK-MEL-147, n = 3, read-out: IC50, reduction of paxillin-containing focal adhesions): 4.73
